Measurements from Sander's compilation of Henry's law constants (doi:10.1021/es00047a026).

test: Henry solubility constant Hcp at 298.15 K (mol/(m3 Pa)); details: reference: Hoff et al. (1993)

**Q.** With `CC(Cl)(Cl)Cl` [1,1,1-trichloroethane] as the molecule, how does the “Henry solubility constant Hcp” value read?
**A.** 0.00053

**Q.** For `Clc1cccc(Cl)c1` [1,3-dichlorobenzene], which “Henry solubility constant Hcp” value is on record?
**A.** 0.0034

**Q.** For `c1ccccc1` [benzene], which “Henry solubility constant Hcp” value is on record?
**A.** 0.0017

**Q.** Which “Henry solubility constant Hcp” value does the source give for `Clc1ccccc1` [chlorobenzene] here?
**A.** 0.0026

**Q.** Which “Henry solubility constant Hcp” value does the source give for `ClCCl` [dichloromethane] here?
**A.** 0.0041

**Q.** With `Cc1ccccc1` [methylbenzene] as the molecule, how does the “Henry solubility constant Hcp” value read?
**A.** 0.0013

**Q.** For `CC(C)=O` [propanone], which “Henry solubility constant Hcp” value is on record?
**A.** 0.27

**Q.** For `ClC(Cl)=C(Cl)Cl` [tetrachloroethene], which “Henry solubility constant Hcp” value is on record?
**A.** 0.00063

**Q.** For `ClC(Cl)(Cl)Cl` [tetrachloromethane], which “Henry solubility constant Hcp” value is on record?
**A.** 0.00036

**Q.** For `ClC=C(Cl)Cl` [trichloroethene], which “Henry solubility constant Hcp” value is on record?
**A.** 0.0011
